According to patent publication US7612200B2, “Inhibitors of protein kinases” (Locus Pharmaceuticals, Inc., priority 2004, dated 2009):

Key:
Format in all cases: biochemical
JNK2α2 = JNK2α2 (Homo sapiens, UniProt P45984); test: JNK2α2 Kinase Activity
Description: (§1) JNK2α2 Kinase Activity: In a final reaction volume of 25 μl, JNK2α2 (h) (5-10 mU) is incubated with 50 mM Tris pH 7.5, 0.1 mM EGTA, 0.1% β-mercaptoethanol, 3 μM ATF2, 10 mM MgAcetate and [γ-^33P-ATP] (specific activity approx. 500 cpm/pmol, concentration as required). The reaction is initiated by the addition of the MgATP mix. After incubation for 40 minutes at room temperature, the reaction is stopped by the addition of 5 μl of a 3% phosphoric acid solution. 10 μl of the reaction is then spotted onto a P30 filtermat and washed three times for 5 minutes in 75 mM phosphoric acid and once in methanol prior to drying and scintillation counting.

Lck = Lck (Homo sapiens, UniProt P06239); test: Lck Kinase Activity
Description: as §1, with “Lck” for “JNK2α2”, “[…], Lck” for “μl, JNK2α2”, “0.1 mM Na3VO4, 250” for “0.1% β-mercaptoethanol, 3”, “KVEKIGEGTYGVVYK (Cdc2 peptide),” for “ATF2,”

Lyn = Lyn (Homo sapiens, UniProt P07948); test: Lyn Kinase Activity; settings: compound at 2 μm
Description: as §1, with “Lyn” for “JNK2α2”, “EGTA, 0.1 mM Na3VO4,” for “EGTA,”, “0.1 mg/ml poly(Glue, Tyr) 4:1,” for “3 μM ATF2,”, “Filtermat A” for “P30 filtermat”

p38β = p38β (Homo sapiens, UniProt Q15759); test: SAPK2b Kinase Activity (p38β); settings: compound at 2 μm
Description: as §1, with “SAPK2b Kinase” for “JNK2α2 Kinase”, “μl, SAPK2b” for “μl, JNK2α2”, “with 25” for “with 50”, “7.5, 0.02” for “7.5, 0.1”, “EGTA, 0.33 mg/ml myelin basic protein,” for “EGTA, 0.1% β-mercaptoethanol, 3 μM ATF2,”, “is the” for “is then”

TrkB = TrkB (Homo sapiens, UniProt Q16620); test: TrkB Kinase Activity
Description: TrkB Kinase Activity: In a final reaction volume of 25 μl, TrkB (h) (5-10 mU) is incubated with 8 mM MOPS pH 7.0, 0.2 mM EDTA, 0.1 mg/ml poly(Glu, Tyr) 4:1, 10 mM MgAcetate and [γ-^33P-ATP] (specific activity approx. 500 cpm/pmol, concentration as required). The reaction is initiated by the addition of the MgATP mix. After incubation for 40 minutes at room temperature, the reaction is stopped by the addition of 5 μl of a 3% phosphoric acid solution. 10 μl of the reaction is then spotted onto a Filtermat A and washed three times for 5 minutes in 75 mM phosphoric acid and once in methanol prior to drying and scintillation counting.

DDR2 = DDR2 (Homo sapiens, UniProt Q16832); test: Protein kinase inhibition, DDR2; settings: Rate (μM) 2, read-out: % Control
EphA1 = EphA1 (Homo sapiens, UniProt P21709); test: Protein kinase inhibition, EphA1; settings: Rate (μM) 2, read-out: % Control
EphA3 = EphA3 (Homo sapiens, UniProt P29320); test: Protein kinase inhibition, EphA3; settings: Rate (μM) 2, read-out: % Control
EphA7 = EphA7 (Homo sapiens, UniProt Q15375); test: Protein kinase inhibition, EphA7; settings: Rate (μM) 2, read-out: % Control
FGFR2 = FGFR2 (Homo sapiens, UniProt P21802); test: Protein kinase inhibition, FGFR2; settings: Rate (μM) 2, read-out: % Control
KDR = KDR (Homo sapiens, UniProt P35968); test: Protein kinase inhibition, KDR; settings: Rate (μM) 2, read-out: % Control
MINK = MINK (Homo sapiens, UniProt Q8N4C8); test: Protein kinase inhibition, MINK; settings: Rate (μM) 2, read-out: % Control
Mnk2 = Mnk2 (Homo sapiens, UniProt Q9HBH9); test: Protein kinase inhibition, Mnk2; settings: Rate (μM) 2, read-out: % Control
P70S6K = P70S6K (Homo sapiens, UniProt P23443); test: Protein kinase inhibition, P70S6K; settings: Rate (μM) 2, read-out: % Control
Pyk2 = Pyk2 (Homo sapiens, UniProt Q14289); test: Protein kinase inhibition, Pyk2; settings: Rate (μM) 2, read-out: % Control
Sequence of Pyk2 (Q14289 whole entry): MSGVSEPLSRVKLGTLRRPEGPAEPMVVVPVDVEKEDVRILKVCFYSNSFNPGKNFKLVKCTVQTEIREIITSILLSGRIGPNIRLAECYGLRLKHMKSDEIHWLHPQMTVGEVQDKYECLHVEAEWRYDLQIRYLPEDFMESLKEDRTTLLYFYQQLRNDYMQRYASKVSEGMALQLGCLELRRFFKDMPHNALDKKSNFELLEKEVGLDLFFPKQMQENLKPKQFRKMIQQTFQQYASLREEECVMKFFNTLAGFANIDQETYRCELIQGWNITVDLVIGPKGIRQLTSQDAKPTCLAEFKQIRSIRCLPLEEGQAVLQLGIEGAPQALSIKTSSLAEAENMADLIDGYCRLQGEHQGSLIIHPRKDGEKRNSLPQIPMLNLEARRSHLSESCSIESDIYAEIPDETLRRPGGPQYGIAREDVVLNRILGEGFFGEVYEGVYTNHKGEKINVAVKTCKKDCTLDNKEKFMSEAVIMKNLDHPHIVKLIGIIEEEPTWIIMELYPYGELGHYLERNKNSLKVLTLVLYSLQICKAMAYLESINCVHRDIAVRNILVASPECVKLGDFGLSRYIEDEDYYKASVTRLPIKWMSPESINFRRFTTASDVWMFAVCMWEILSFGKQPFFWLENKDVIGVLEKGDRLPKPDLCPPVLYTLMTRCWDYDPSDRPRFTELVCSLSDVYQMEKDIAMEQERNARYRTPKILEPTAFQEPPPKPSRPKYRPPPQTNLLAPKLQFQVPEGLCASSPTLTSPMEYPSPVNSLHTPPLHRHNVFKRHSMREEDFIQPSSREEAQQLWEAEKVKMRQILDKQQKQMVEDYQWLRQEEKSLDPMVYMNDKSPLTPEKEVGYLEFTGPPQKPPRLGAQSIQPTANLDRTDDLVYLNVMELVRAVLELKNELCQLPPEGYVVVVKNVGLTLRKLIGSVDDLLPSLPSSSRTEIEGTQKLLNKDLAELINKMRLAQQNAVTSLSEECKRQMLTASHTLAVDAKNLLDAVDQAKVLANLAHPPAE

Sequence of TrkB (Q16620 32-822): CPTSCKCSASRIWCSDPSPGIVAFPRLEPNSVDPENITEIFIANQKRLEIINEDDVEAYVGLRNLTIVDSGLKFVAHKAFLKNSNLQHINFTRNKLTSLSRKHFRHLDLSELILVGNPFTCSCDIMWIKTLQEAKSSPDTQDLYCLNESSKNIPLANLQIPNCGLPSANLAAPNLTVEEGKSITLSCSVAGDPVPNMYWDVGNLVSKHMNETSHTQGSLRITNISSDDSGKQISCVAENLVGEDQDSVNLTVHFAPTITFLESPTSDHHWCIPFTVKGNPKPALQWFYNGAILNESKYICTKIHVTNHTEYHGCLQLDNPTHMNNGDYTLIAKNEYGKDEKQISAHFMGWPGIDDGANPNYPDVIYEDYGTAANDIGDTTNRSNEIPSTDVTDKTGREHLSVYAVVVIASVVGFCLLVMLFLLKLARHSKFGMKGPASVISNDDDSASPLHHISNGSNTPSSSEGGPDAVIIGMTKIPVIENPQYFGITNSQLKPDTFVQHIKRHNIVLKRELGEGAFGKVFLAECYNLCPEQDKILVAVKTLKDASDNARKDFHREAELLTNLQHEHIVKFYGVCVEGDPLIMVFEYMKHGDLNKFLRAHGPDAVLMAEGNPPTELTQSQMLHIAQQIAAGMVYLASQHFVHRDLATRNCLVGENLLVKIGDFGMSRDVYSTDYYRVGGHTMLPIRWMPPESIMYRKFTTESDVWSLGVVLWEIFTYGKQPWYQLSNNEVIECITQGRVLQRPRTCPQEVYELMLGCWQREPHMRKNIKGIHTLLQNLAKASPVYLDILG
Sequence of JNK2α2 (P45984 whole entry): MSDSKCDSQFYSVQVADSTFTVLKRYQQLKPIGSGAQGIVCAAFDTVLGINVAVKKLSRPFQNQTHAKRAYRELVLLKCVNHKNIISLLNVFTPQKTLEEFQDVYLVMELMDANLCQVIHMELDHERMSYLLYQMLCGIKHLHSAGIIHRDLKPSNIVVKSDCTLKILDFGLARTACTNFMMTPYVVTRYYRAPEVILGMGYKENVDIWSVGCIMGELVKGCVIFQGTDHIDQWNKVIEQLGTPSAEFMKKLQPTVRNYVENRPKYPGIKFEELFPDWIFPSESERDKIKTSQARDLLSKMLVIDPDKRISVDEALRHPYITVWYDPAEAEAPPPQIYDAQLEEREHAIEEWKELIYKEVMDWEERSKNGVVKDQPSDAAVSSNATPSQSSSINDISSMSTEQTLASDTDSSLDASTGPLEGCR
Sequence of Lck (P06239 whole entry): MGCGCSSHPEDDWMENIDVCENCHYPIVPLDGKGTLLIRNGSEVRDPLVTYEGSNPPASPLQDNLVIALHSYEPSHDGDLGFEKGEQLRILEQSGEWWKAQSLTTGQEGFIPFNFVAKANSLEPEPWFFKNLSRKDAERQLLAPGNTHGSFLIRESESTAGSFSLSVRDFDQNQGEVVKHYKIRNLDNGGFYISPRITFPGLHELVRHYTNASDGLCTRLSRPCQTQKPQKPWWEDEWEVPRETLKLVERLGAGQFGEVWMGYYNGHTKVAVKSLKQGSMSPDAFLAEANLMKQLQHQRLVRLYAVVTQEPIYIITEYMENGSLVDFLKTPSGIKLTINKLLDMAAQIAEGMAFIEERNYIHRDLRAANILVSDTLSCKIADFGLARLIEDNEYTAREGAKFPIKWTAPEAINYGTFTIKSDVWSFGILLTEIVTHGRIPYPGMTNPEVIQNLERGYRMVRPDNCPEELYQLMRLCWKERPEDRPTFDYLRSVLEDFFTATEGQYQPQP
Sequence of P70S6K (P23443 whole entry): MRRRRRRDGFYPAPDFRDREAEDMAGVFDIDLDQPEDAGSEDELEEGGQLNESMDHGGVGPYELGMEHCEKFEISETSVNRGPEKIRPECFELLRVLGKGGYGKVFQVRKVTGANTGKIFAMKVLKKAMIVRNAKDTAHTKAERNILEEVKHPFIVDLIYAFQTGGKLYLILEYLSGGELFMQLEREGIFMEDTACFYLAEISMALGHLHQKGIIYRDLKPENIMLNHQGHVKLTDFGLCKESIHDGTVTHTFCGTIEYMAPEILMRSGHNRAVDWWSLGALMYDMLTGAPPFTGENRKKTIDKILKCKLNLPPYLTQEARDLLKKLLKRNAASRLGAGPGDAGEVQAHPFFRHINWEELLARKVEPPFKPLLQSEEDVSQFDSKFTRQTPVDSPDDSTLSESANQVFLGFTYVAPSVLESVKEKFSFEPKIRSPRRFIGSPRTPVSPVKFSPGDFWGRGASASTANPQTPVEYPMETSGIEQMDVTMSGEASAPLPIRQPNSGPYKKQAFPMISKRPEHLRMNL
Sequence of FGFR2 (P21802 22-821): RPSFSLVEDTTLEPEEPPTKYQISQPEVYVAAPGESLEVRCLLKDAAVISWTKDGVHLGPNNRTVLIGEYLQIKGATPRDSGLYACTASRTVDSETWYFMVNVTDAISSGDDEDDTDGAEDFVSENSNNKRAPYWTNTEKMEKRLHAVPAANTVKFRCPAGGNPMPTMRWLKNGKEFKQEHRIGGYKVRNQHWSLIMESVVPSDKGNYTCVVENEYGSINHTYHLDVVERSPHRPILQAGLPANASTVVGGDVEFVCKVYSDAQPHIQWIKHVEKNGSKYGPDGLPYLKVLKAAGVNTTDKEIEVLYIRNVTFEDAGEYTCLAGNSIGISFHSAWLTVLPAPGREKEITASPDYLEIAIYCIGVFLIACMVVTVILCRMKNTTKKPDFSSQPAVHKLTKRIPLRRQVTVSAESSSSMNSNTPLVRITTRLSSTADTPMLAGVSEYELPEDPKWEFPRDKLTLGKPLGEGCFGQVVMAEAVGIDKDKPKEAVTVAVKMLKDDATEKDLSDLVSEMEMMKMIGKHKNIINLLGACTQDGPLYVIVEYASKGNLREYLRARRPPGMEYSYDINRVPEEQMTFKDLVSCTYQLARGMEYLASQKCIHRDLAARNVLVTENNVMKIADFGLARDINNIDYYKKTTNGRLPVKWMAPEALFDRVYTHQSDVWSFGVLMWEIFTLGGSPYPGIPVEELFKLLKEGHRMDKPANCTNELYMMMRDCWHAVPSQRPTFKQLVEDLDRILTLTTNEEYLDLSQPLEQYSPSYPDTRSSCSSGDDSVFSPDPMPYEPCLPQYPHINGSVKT
Sequence of Lyn (P07948 whole entry): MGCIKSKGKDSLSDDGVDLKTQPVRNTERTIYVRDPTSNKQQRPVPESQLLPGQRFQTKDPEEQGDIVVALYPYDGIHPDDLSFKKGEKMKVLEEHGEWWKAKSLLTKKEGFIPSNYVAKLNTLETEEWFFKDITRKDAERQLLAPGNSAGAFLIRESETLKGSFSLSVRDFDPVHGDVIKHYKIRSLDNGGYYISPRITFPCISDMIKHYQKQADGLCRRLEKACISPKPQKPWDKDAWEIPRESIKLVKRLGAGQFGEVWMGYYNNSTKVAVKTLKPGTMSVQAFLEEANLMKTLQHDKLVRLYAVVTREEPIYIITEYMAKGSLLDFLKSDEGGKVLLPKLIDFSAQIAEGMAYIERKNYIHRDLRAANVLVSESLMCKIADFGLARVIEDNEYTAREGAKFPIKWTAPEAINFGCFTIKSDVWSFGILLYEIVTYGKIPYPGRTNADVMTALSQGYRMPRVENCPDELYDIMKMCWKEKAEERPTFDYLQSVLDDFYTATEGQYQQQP
Sequence of Mnk2 (Q9HBH9 whole entry): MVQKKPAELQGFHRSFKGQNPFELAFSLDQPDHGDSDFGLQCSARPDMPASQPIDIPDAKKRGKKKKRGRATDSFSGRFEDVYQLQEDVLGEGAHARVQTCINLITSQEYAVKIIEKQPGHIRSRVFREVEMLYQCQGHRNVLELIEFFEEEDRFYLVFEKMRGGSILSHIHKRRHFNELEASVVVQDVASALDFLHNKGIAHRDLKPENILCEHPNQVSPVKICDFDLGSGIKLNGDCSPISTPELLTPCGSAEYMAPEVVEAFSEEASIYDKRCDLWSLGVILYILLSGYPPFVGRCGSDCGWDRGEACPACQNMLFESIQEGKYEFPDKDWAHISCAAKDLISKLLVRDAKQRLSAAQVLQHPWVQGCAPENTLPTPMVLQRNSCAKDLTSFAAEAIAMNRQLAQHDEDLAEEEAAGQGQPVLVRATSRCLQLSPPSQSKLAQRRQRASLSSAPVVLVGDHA

Q: Which “% Inhibition at 2 μm” value (JNK2α2; JNK2a2, compound at 2 μm) does the source give for `CC(C)(C)c1cc(C(=O)N2CCS(=O)(=O)CC2)c(NC(=O)Nc2ccc(Oc3ccncc3)cc2)s1` [Example 3, 1-[5-tert-Butyl-3-(1,1-dioxo-1λ^6-thiomorpholine-4-carbonyl)thiophen-2-yl]-3-[4-(pyridin-4-yloxy)phenyl]urea] here?
A: Its value is 26-50%.

Q: And the “% inhibition” value (JNK2α2; JNK2α2, Human, Rate (μM) 2)?
A: Its value is 26-50%.

Q: And the remaining activity at 2 µM (Lck; 40 min, Lck, Human, Rate (μM) 2, read-out: % Control)?
A: The remaining activity at 2 µM was 51 to 75%.

Q: What about the “% Inhibition at 2 μm” value (Lck; LCK, compound at 2 μm) of the same compound?
A: The value was 51-75%.

Q: And the “% Inhibition at 2 μm” value (Lyn)?
A: Its value is 76-100%.

Q: And the “% Inhibition at 2 μm” value (p38β)?
A: Its value is 76-100%.

Q: And the remaining activity at 2 µM (TrkB; 40 min, Human, Rate (μM) 2, read-out: % Control)?
A: The remaining activity at 2 µM was 76 to 100%.

Q: What about the “% Inhibition at 2 μm” value (TrkB; compound at 2 μm) of the same compound?
A: Its value is 76-100%.

Q: And the remaining activity at 2 µM (DDR2)?
A: Its remaining activity at 2 µM is 76 to 100%.

Q: And the remaining activity at 2 µM (EphA1)?
A: Its remaining activity at 2 µM is 76 to 100%.

Q: And the remaining activity at 2 µM (EphA3)?
A: The remaining activity at 2 µM was 76 to 100%.

Q: And the remaining activity at 2 µM (EphA7)?
A: The remaining activity at 2 µM was 76 to 100%.

Q: What about the remaining activity at 2 µM (FGFR2) of the same compound?
A: The remaining activity at 2 µM was 51 to 75%.

Q: What about the remaining activity at 2 µM (KDR) of the same compound?
A: Its remaining activity at 2 µM is 76 to 100%.

Q: What about the remaining activity at 2 µM (MINK) of the same compound?
A: The remaining activity at 2 µM was 51 to 75%.

Q: What about the remaining activity at 2 µM (Mnk2) of the same compound?
A: Its remaining activity at 2 µM is 76 to 100%.

Q: And the remaining activity at 2 µM (P70S6K)?
A: The remaining activity at 2 µM was 51 to 75%.

Q: And the remaining activity at 2 µM (Pyk2)?
A: Its remaining activity at 2 µM is 51 to 75%.
